Data taken from patent US11969428B2, “Methods and pharmaceutical compositions for treating lymphoid malignancy” (priority 2011, dated 2024).

How the values were obtained:
CD4+CD8+ DP thymocytes = experiment: Fetal thymus organ culture, flow cytometry; type: cell-based, mouse; conditions: IC87114 10 μM, 1 week
Description: Thymus lobes were obtained from mouse embryos, with embryonic day 0 (EO) considered the day of vaginal plug detection. Fetal thymus organ cultures were used to compare the effects of pharmacologic blockade of p110δ activity on thymocyte development in WT, p110δ^−/−, and p110γ^−/− mice. Briefly, 3 to 4 intact thymi were placed on bare filter inserts (transwell, 3-μm pore size; Corning Costar, Cambridge, MA) and then were inserted into wells containing DMEM, 10% FCS supplemented with either p110δ-specific inhibitor IC87114 (10 μM) or vehicle control (DMSO), and incubated for 1 week at 37° C. in 5% CO2. Thymocyte differentiation was evaluated by flow cytometry.

Akt/PKB phosphorylation = experiment: TCR-induced Akt/PKB phosphorylation in thymocytes (Western blot); type: cell-based, mouse; conditions: p110γ−/− thymocytes; IC87114 10 μM
Description: Cell lysates (from cell lines or thymocytes) were prepared on ice in M-PER Mammalian Protein Extraction reagent (Pierce) containing a cocktail of protease and phosphatase inhibitors (Swat et al., 2006). Equal amounts of total protein from lysates were subjected to SDS-PAGE, transferred to PVDF membrane (Immobilon-P, Millipore), and membranes probed by overnight incubation with appropriate primary antibodies. Bound antibodies were visualized with HRP-conjugated secondary antibodies and ECL chemistry (SuperPico West, Pierce).
To assess the requirement for p110δ in TCR-induced phosphorylation of Akt/PBK, single-cell suspensions of thymocytes (1×10^8/mL) from PI3Kγ-deficient animals were incubated with the p110δ-specific inhibitor IC87114 (10 μM) or with vehicle control (DMSO) for 30 minutes before TCR cross-linking, as described for the Ca^2+ flux assay. Aliquots (100 μL) were collected at 0, 10, 30, and 60 minutes after TCR cross-linking, briefly centrifuged to pellet, and subsequently lysed with ice-cold M-Per (Pierce, Rockford, IL) (according to the manufacturer's recommendations) that contained a cocktail of phosphatase and protease inhibitors (Puri et al., 2005). Lysates were clarified by centrifugation (12,000 g for 15 minutes at 4° C.), and total and phosphorylated Akt/PBK were determined by Western blot analysis.

CCRF-CEM cells = experiment: Cell proliferation and apoptosis (cell counting, Annexin V); type: cell-based, human
Description: (§1) Cell proliferation of CCRF-CEM cells or shRNA transfected CCRF-CEM cells, in the presence or absence of appropriate drug, was followed by cell counting of samples in triplicate using a hemocytometer and trypan blue. For apoptosis determinations of untransfected or shRNA transfected CCRF-CEMs, cells were stained with APC-conjugated Annexin-V (BD Biosciences) in Annexin Binding Buffer (Miltyeni Biotec) and analyzed by flow cytometry. For primary T-ALL samples, cell viability was assessed using the BD Cell Viability kit (BD Biosciences) coupled with the use of fluorescent counting beads as previously described (Armstrong et al., 2009). For this, cells were plated with MS5-DL1 stroma cells, and after 72 hours following drug treatment cells were harvested and stained with an APC-conjugated anti-human CD45 followed by a staining with the above kit according to the manufacturer's instructions.

[1] = system: primary human T-ALL tumor cells; experiment: Primary T-ALL cell viability on MS5-DL1 stroma; type: cell-based; conditions: selective blockade of PI3Kδ
Description: as §1

[2] = CCRF-CEM with p110γ shRNA knockdown, IC87114 10 μM

Cc1ccccc1-n1c(Cn2cnc3c(N)ncnc32)nc2cccc(C)c2c1=O [IC87114, reference compound]
reduction in the population of CD4+CD8+ DP thymocytes (CD4+CD8+ DP thymocytes; p110γ−/− day 14.5 fetal thymi, mean±SE): 69.2%±2.7% | decrease in DP cells (CD4+CD8+ DP thymocytes; p110δ−/− or WT control fetal thymi): ≤ 10% | phosphorylated form of Akt/PKB after TCR cross-linking (Akt/PKB phosphorylation): not detected | proliferation and apoptosis (CCRF-CEM cells; CCRF-CEM containing empty vector alone, IC87114): no major effect | apoptosis (CCRF-CEM cells; [2]): promoted apoptosis | proliferation (CCRF-CEM cells; [2]): prevented proliferation | viability of primary human T-ALL samples [1]: ineffective
